Patent publication US20240383852A1, “ANTI-VIRAL COMPOUNDS” (INFEX Therapeutics Limited, priority 2021, published 2024)
Where a name gives a salt, the structure may show the parent alone. Read-outs that look alike come from different tables or passages of the source.

Tests used:
[1] = system: human Hep G2 cells (ATCC HB-8065); assay: Cytotoxicity in Hep G2 cells (CellTiter-Glo); type: cell-based
SARS-CoV-2 PLpro = target: T1, SARS-CoV-2 PLpro (Severe acute respiratory syndrome coronavirus 2, UniProt P0DTD1); assay: biochemical
T1 construct: containing 60 nM papain-like protease

[2] = Hep G2 cells, 100 μM test article, 24-hour exposure
[3] = 60 nM papain-like protease, 50 μM Z-RLRGG-AMC, pH 7.5, 37° C., read-out: SARS-CoV-2 PLpro IC50

SMILES: COc1ccc([C@@H](C)NC(=O)c2cc(N3CCN(C)CC3)ccc2C)cc1-c1nnc(C)s1 [Example 236, N-[(1R)-1-[4-Methoxy-3-(5-methyl-1,3,4-thiadiazol-2-yl)phenyl]ethyl]-2-methyl-5-(4-methylpiperazin-1-yl)benzamide]
- % Cell Viability [1, 2]: 79.5%
- IC50 (SARS-CoV-2 PLpro; [3]): < 2 µM

SMILES: COc1ccc([C@@H](C)NC(=O)c2cc(N3CC4(CNC4)C3)ccc2C)cc1-c1cnn(C)c1 [Example 271, 5-(2,6-Diazaspiro[3.3]heptan-2-yl)-N-[(1R)-1-[4-methoxy-3-(1-methylpyrazol-4-yl)phenyl]ethyl]-2-methyl-benzamide]
- % Cell Viability [1, 2]: 95.2%
- IC50 (SARS-CoV-2 PLpro; [3]): < 5 µM

SMILES: Cc1ccc(N2CCN(C)CC2)cc1C(=O)N[C@H](C)c1cccc(-c2cccc(C(=O)NC[C@@H](O)CO)c2)c1 [Example 90]
- % Cell Viability [1, 2]: 103.1%
- IC50 (SARS-CoV-2 PLpro; [3]): < 2 µM

SMILES: COc1ccc([C@@H](C)NC(=O)c2cc(N3CCN(C)CC3)ccc2C)cc1-c1cn[nH]c1 [Example 214, N-[(1R)-1-[4-Methoxy-3-(1H-pyrazol-4-yl)phenyl]ethyl]-2-methyl-5-(4-methylpiperazin-1-yl)benzamide]
- % Cell Viability [1, 2]: 101.2%
- IC50 (SARS-CoV-2 PLpro; [3]): < 2 µM

SMILES: Cc1ccc(N2CCN(C)CC2)c(C)c1C(=O)N[C@H](C)c1cccc2ccccc12 [Example 124, 2,6-Dimethyl-3-(4-methylpiperazin-1-yl)-N-[(1R)-1-(1-naphthyl)ethyl]benzamide]
- % Cell Viability [1, 2]: 37.4%
- IC50 (SARS-CoV-2 PLpro; [3]): < 2 µM

SMILES: Cc1ccc(N2CCN(CCC(=O)O)CC2)cc1C(=O)N[C@H](C)c1cccc2ccccc12 [Example 162, 3-[4-[4-Methyl-3-[[(1R)-1-(1-naphthyl)ethyl]carbamoyl]phenyl]piperazin-1-yl]propanoic acid]
- % Cell Viability [1, 2]: 104.9%
- IC50 (SARS-CoV-2 PLpro; [3]): < 2 µM

SMILES: Cc1ccc(N2CCN(C)CC2)cc1C(=O)N[C@H](C)c1cccc(-c2cccc(C(N)=O)c2)c1 [Example 43, N-[(1R)-1-[3-(3-Carbamoylphenyl)phenyl]ethyl]-2-methyl-5-(4-methylpiperazin-1-yl)benzamide]
- % Cell Viability [1, 2]: 71.3%
- IC50 (SARS-CoV-2 PLpro; [3]): < 2 µM

SMILES: Cc1ccc(N2CCN(C)C(C)C2)cc1C(=O)N[C@H](C)c1cccc2ccccc12 (stereo partly drawn) [Example 126, 5-(3,4-Dimethylpiperazin-1-yl)-2-methyl-N-[(1R)-1-(1-naphthyl)ethyl]benzamide]
- % Cell Viability [1, 2]: 62.8%
- IC50 (SARS-CoV-2 PLpro; [3]): < 2 µM

SMILES: Cc1ccc(N2CCN(CCO)CC2)cc1C(=O)N[C@H](C)c1cccc2ccccc12 [Example 111, 5-[4-(2-Hydroxyethyl)piperazin-1-yl]-2-methyl-N-[(1R)-1-(1-naphthyl)ethyl]benzamide]
- % Cell Viability [1, 2]: 74.8%
- IC50 (SARS-CoV-2 PLpro; [3]): < 2 µM

SMILES: Cc1ccc(N2CCN[C@@H](C(C)C)C2)cc1C(=O)N[C@H](C)c1cccc2ccccc12 [Example 19, 5-[(3S)-3-Isopropylpiperazin-1-yl]-2-methyl-N-[(1R)-1-(1-naphthyl)ethyl]benzamide]
- % Cell Viability [1, 2]: 1.0%
- IC50 (SARS-CoV-2 PLpro; [3]): < 2 µM

SMILES: Cc1ccc(N2CCCNCC2)cc1C(=O)N[C@H](C)c1cccc2ccccc12 [Example 128, 5-(1,4-Diazepan-1-yl)-2-methyl-N-[(1R)-1-(1-naphthyl)ethyl]benzamide]
- % Cell Viability [1, 2]: 1.1%
- IC50 (SARS-CoV-2 PLpro; [3]): < 2 µM

SMILES: C[C@@H]1CN(c2ccc(Cl)c(C(=O)N[C@H](C)c3cccc4ccccc34)c2)C[C@H](C)N1 [Example 133, 2-Chloro-5-[(3S,5R)-3,5-dimethylpiperazin-1-yl]-N-[(1R)-1-(1-naphthyl)ethyl]benzamide]
- % Cell Viability [1, 2]: 0.1%
- IC50 (SARS-CoV-2 PLpro; [3]): < 5 µM

SMILES: Cc1ccc(N2C[C@H]3C[C@@H]2CN3C)cc1C(=O)N[C@H](C)c1cccc(Br)c1 [Example 123, N-[(1R)-1-(3-bromophenyl)ethyl]-2-methyl-5-[(1R,4R)-5-methyl-2,5-diazabicyclo[2.2.1]heptan-2-yl]benzamide]
- % Cell Viability [1, 2]: 32.9%
- IC50 (SARS-CoV-2 PLpro; [3]): < 2 µM

SMILES: COc1cc([C@@H](C)NC(=O)c2cc(N3C[C@H]4CC[C@@H](C3)N4)ccc2C)ccc1OCC1CC1 [Example 298, N-[(1R)-1-[4-(Cyclopropylmethoxy)-3-methoxy-phenyl]ethyl]-5-[(1R,5S)-3,8-diazabicyclo[3.2.1]octan-3-yl]-2-methyl-benzamide]
- % Cell Viability ([1]; human, 24 h, 100 μM): 43.9%
- IC50 (SARS-CoV-2 PLpro): < 2 µM

SMILES: COc1ccc([C@@H](C)NC(=O)c2cc(N3CCC4(CC3)CNC4)ccc2C)cc1-c1cnn(C)c1 [Example 259, 5-(2,7-Diazaspiro[3.5]nonan-7-yl)-N-[(1R)-1-[4-methoxy-3-(1-methylpyrazol-4-yl)phenyl]ethyl]-2-methyl-benzamide]
- % Cell Viability [1, 2]: 111.1%
- IC50 (SARS-CoV-2 PLpro; [3]): < 2 µM

SMILES: COc1ccc([C@@H](C)NC(=O)c2cc(C3CCN(C)CC3)ccc2C)cc1Br [Example 299, N-[(1R)-1-(3-Bromo-4-methoxy-phenyl)ethyl]-2-methyl-5-(1-methyl-4-piperidyl)benzamide]
- % Cell Viability [1, 2]: 76.2%
- IC50 (SARS-CoV-2 PLpro; [3]): < 2 µM

SMILES: Cc1ccc(N2CCN(C)CC2)cc1C(=O)N[C@H](C)c1ccc(F)c(Br)c1 [Example 187, N-[(1R)-1-(3-Bromo-4-fluoro-phenyl)ethyl]-2-methyl-5-(4-methylpiperazin-1-yl)benzamide]
- % Cell Viability [1, 2]: 44.0%
- IC50 (SARS-CoV-2 PLpro; [3]): < 2 µM

SMILES: COc1ccc([C@@H](C)NC(=O)c2cc(N3CCN(C)CC3)ccc2C)cc1-c1ccn(C)n1 [Example 207, N-[(1R)-1-[4-Methoxy-3-(1-methylpyrazol-3-yl)phenyl]ethyl]-2-methyl-5-(4-methylpiperazin-1-yl)benzamide]
- % Cell Viability [1, 2]: 103.7%
- IC50 (SARS-CoV-2 PLpro; [3]): < 2 µM

SMILES: Cc1ccc(N2CCCN(CCC(=O)O)CC2)cc1C(=O)N[C@H](C)c1cccc2ccccc12 [Example 163, 3-[4-[4-Methyl-3-[[(1R)-1-(1-naphthyl)ethyl]carbamoyl]phenyl]-1,4-diazepan-1-yl]propanoic acid]
- % Cell Viability [1, 2]: 122.4%
- IC50 (SARS-CoV-2 PLpro; [3]): < 5 µM

SMILES: Cc1ccc(N2CCN(C)CC2)cc1C(=O)N[C@H](C)c1cccc(-c2ccc(=O)n(C)c2)c1 [Example 48, 2-Methyl-N-[(1R)-1-[3-(1-methyl-6-oxo-3-pyridyl)phenyl]ethyl]-5-(4-methylpiperazin-1-yl)benzamide]
- % Cell Viability [1, 2]: 63.6%
- IC50 (SARS-CoV-2 PLpro; [3]): < 5 µM

SMILES: Cc1ccc(N2CCN(C)CC2)cc1C(=O)N[C@H](C)c1cccc(-c2ccc(C(=O)O)cc2)c1 [Example 41]
- % Cell Viability [1, 2]: 110.1%
- IC50 (SARS-CoV-2 PLpro; [3]): < 5 µM

SMILES: Cc1ccc(N2CC[C@@H](N3CCCCC3)C2)cc1C(=O)N[C@H](C)c1cccc2ccccc12 [Example 129, 2-Methyl-N-[(1R)-1-(1-naphthyl)ethyl]-5-[(3R)-3-(1-piperidyl)pyrrolidin-1-yl]benzamide]
- % Cell Viability [1, 2]: 95.5%
- IC50 (SARS-CoV-2 PLpro; [3]): < 5 µM

SMILES: Cc1ccc(N2CCN(C)CC2)cc1C(=O)N[C@H](C)c1cccc(C(=O)NCC(N)=O)c1 [Example 310, N-[(1R)-1-[3-[(2-Amino-2-oxo-ethyl)carbamoyl]phenyl]ethyl]-2-methyl-5-(4-methylpiperazin-1-yl)benzamide hydrochloride salt]
- % Cell Viability [1, 2]: 124.4%
- IC50 (SARS-CoV-2 PLpro; [3]): < 5 µM

SMILES: Cc1ccc(N2CC3(CN(CCO)C3)C2)cc1C(=O)N[C@H](C)c1cccc2ccccc12 [Example 20, 5-[6-(2-Hydroxyethyl)-2,6-diazaspiro[3.3]heptan-2-yl]-2-methyl-N-[(1R)-1-(1-naphthyl)ethyl]benzamide]
- % Cell Viability [1, 2]: 94.3%
- IC50 (SARS-CoV-2 PLpro; [3]): < 5 µM
